In general, pEC50 refers to −log10 of the EC50, conventionally taken in molar units.

pEC50: −log10 of the molar value.

For the assay, the target named is T1, TRPV1 (transient receptor potential vanilloid 1, capsaicin receptor) (Rattus norvegicus, UniProt O35433).
T1 construct: full-length wild-type rat TRPV1 in pcDNA3.1(+), transient transfection in HEK 293 cells; fura-2 Ca2+ imaging
The assay is described as follows: fura-2 Ca2+ imaging concentration-response in TRPV1-expressing HEK […] cells; whole-cell patch clamp, cobalt uptake, Y511A mutant and competition with capsaicin. In kind it is cell-based. In general terms: Patch clamp records ionic current or voltage across a cell membrane.

T1 sequence (O35433 whole entry): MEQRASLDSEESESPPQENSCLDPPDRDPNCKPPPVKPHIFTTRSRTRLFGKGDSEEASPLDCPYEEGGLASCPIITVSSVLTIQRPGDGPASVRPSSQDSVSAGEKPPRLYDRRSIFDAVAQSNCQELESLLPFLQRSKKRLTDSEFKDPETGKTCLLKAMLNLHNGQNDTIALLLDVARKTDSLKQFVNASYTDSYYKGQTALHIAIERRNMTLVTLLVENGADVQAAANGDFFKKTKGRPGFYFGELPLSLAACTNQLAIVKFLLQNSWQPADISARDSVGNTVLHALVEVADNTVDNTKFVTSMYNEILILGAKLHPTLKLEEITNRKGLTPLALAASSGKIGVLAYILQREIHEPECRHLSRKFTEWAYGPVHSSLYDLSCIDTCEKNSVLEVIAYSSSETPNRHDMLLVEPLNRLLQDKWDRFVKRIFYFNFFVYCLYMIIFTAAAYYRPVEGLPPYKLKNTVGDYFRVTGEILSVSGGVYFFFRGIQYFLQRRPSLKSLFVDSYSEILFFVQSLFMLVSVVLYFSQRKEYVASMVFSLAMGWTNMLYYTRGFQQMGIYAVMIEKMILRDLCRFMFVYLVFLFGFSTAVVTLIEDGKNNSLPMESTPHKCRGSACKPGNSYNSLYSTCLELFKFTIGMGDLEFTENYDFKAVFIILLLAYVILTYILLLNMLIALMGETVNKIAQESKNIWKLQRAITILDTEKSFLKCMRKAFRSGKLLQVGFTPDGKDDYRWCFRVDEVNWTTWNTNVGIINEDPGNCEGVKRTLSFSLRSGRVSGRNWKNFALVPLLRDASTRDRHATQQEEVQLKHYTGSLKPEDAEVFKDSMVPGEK

Take `CCCCCCCC/C=C\CCCCCCCC(=O)OC[C@H](CO)OC(C)=O` [OAG, 1-oleoyl-2-acetyl-sn-glycerol]: the pEC50 is 4.89.
